Experiments:
[1] = target: Delta-type opioid receptor (Sus scrofa, UniProt P79291)
[2] = target: Kappa-type opioid receptor (Cavia porcellus, UniProt P41144)
Kappa-type opioid receptor, sequence (P41144 whole entry): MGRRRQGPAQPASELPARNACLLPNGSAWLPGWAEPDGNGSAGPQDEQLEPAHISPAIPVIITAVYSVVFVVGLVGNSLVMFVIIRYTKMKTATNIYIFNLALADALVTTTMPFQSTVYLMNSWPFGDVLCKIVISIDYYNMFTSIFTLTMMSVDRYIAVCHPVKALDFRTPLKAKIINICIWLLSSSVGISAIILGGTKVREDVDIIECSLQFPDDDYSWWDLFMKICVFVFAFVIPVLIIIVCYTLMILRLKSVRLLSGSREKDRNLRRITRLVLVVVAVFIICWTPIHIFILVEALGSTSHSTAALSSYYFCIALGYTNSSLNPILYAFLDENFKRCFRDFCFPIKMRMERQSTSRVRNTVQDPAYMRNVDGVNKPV

Delta-type opioid receptor, sequence (P79291 whole entry): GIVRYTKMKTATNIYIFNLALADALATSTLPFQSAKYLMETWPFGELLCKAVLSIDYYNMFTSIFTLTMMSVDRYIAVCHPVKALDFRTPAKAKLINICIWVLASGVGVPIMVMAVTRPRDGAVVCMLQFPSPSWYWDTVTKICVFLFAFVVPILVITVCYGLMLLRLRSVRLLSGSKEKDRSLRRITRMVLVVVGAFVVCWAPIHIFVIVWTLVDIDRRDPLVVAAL

## C[C@@H]1[C@@H]2Cc3ccc(O)cc3[C@@]1(C)CCN2CC1CC1 [(SSS)-12-Cyclopropylmethyl-13-methyl-12-aza-tricyclo[9.1.1.0*3,8*]trideca-3(8),4,6-trien-6-ol(cyclazocine)]
[1]
  Ki: 1100 pM
[2]
  Ki: 180 pM
